Common to all, as to type: cell-based
One assay concerns Ba/F3-JAK3. Put plainly: Ba/F3-JAK3 cell growth inhibition. The following applies: Ba/F3-JAK3 cells.
A further assay deals with c-Src527F/NIH 3T3. Briefly: BrdU cell growth inhibition, c-Src527F/NIH 3T3. The conditions noted are these: Mus musculus, NIH3T3; c-Src527F/NIH 3T3 cells; read-out: c-Src527F/NIH 3T3 GI 50. On the procedure:
(§1) The GI50s for the compounds of the invention is assayed as described herein.
The c-Src 3T3 is a mouse fibroblast NIH 3T3 normal cell line that has been transfected with a point-mutant of human c-Src wherein tyrosine 527 has been converted to a phenylalanine. This mutation results in “constitutively active” c-Src because phosphorylation on tyrosine 527 results in auto-inhibition of Src by having it fold back on its own SH2 domain. With a Phe there, this phosphorylation can't occur and therefore auto-inhibition can't occur. Thus, the always fully active mutant Src then converts the normal mouse fibroblasts into rapidly growing tumor cells. […]
In the BrdU Assay for cell growth inhibition, quantitation of cell proliferation is based on the measurement of BrdU incorporation during DNA synthesis. […]
The growth inhibition (G1) is determined from the formula G1=(T0−Tr×100/T0−CONn) where T0 is the BrdU growth of untreated cells at time “0”, Tn, is the BrdU growth of treated cells at day “n” and CONn is the control BrdU growth of control cells at day “n”. […]
(§2) Seeded 96 well plates are allowed to attach overnight for 18-24 hours, either at 37° C. and 5% CO2 for HT-29 or at 37° C. and 10% CO2 for c-Src 3T3. Approx 18-24 hours after seeding, the initial growth of cells (T0) is determined for untreated cells using the BrdU assay. […] Plates are assayed for BrdU and the data is analyzed as above for GI50.

Another assay relates to HT29. Put plainly: BrdU cell growth inhibition, HT29. The conditions noted are these: Homo sapiens, HT-29; HT29 cells; read-out: HT29 GI 50. On the procedure: as §1
The HT29 cell line is a NCI standard human colon carcinoma cell line. HT-29 cells are obtained from ATCC at passage 125 and are used for inhibition studies between passage 126-151. HT29 cells are routinely cultured in McCoy's 5A medium supplemented with Fetal Bovine Serum (1.5% v/v) and L-glutamine (2 mM).
In the BrdU Assay for cell growth inhibition, quantitation of cell proliferation is based on the measurement of BrdU incorporation during DNA synthesis. The Cell Proliferation ELISA BrdU assay kit (colorimetric) is obtained from Roche Applied Science and performed as per vendor instructions.
The growth inhibition (G1) is determined from the formula G1=(T0−Tr×100/T0−CONn) where T0 is the BrdU growth of untreated cells at time “0”, Tn, is the BrdU growth of treated cells at day “n” and CONn is the control BrdU growth of control cells at day “n”. The GI50 is extrapolated and the data plotted using XL-Fit 4.0 software. […]
as §2

The subject of a further assay is Ba/F3-JAK2. Put plainly: Ba/F3-JAK2 cell growth inhibition. The conditions noted are these: Ba/F3-JAK2 cells.
The test system of another assay is ACHN. Put plainly: Tumor growth inhibition, ACHN. The following applies: Homo sapiens, read-out: Dasatinib GI50, renal cell adenocarcinoma.
The next assay concerns PLC/PRF/5. Briefly: MTT growth inhibition, PLC/PRF/5. The following applies: Homo sapiens, 8.0×10^3 cells/wells, 1.5% FBS, 78 Hr, normalized response data. On the procedure:
(§3) Samples of the test compounds are formulated in 100% DMSO to obtain 20 mM stock solutions; stored @ 4° C. The IC50s and IC80s are determined as described below. Huh7, WRL-68, PLC/PRF/5, Hep 3B, and Hep G2 human cancer lines are routinely cultured and maintained in a basal medium containing 2% FBS @ 37° C., 5% CO2. Cells are seeded @ 4.0×10^3/190 μl and 8.0×10^3/190 μl per well of a 96-well plate. The assay medium is basal medium/1.5% FBS. […] The test article dilutions are prepared as follows: 20 mM stock solution samples are diluted serially in basal medium/1.5% FBS using 1:3 dilutions, yielding 20× concentrations; 131 μM to 0.24 nM range. 10 μL of 20× dilutions are added to the appropriate wells (n=3) containing 190 μL cancer cell line; 6561 nM to 0.012 nM range of final concentrations. Vehicle control contains cells, no sample. Medium control contains cells, no sample, 0.03% DMSO (highest DMSO concentration present in samples). The treated cells are incubated for 72 hours at 37° C., 5% CO2. On day 3, 10 μL MTT (5 mg/mL) are added to each well. Cells are incubated in the presence of MTT for 4 hours @ 37° C., 5% CO2. 90 μL 10% SDS(+HCl) is added to each well to lyse cells and solubilize formazan.

The subject of a further assay is 786-O. Put plainly: Tumor growth inhibition, 786-O. The conditions noted are these: Homo sapiens, 786-0, read-out: Dasatinib GI50, renal cell adenocarcinoma.
For a further assay, the system named is 769-P. Put plainly: Tumor growth inhibition, 769-P. The conditions noted are these: Homo sapiens, read-out: Dasatinib GI50, renal cell adenocarcinoma.
The test system of the next assay is Hep 3B. Put plainly: MTT growth inhibition, Hep 3B. The conditions noted are these: Homo sapiens, Hep3B, 8.0×10^3 cells/wells, 1.5% FBS, 78 Hr, normalized response data. On the procedure:
as §3

The next assay concerns Caki-2. Briefly: Tumor growth inhibition, Caki-2. The conditions noted are these: Homo sapiens, read-out: Dasatinib GI50; Caki-2, clear cell carcinoma.
The subject of a further assay is HuH7. Briefly: MTT growth inhibition, HuH7. The conditions noted are these: Homo sapiens, Huh-7, 8.0×10^3 cells/wells, 1.5% FBS, 78 Hr, normalized response data. Here is the method:
as §3, with “formazan. […] OD570 measurements are taken, e.g., using BioTek Synergy HT multiplatform microplate reader. Growth inhibition curves IC50s and IC80s are determined using GraphPad Prism 5 statistical software.” for “formazan.”

Assay [1] has as its system known Src protein substrates. Put plainly: Phosphorylation of Src substrates in HT29 cells. The following applies: human colon cancer cells (HT29). On the procedure:
(§4) Compounds of the invention may be Src signaling inhibitors that bind in the Src peptide substrate site. The activity of various compounds of the invention has been studied in c-Src (527F, constitutively active and transforming) transformed NIH3T3 cells and in human colon cancer cells (HT29).
(§5) HT29 (colon cancer) and c-Src527F/NIH-3T3 (Src transformed) cell lines are treated with a compound of the invention or with AstraZeneca's ATP competitive Src inhibitor AZ28 (KX2-328). AZ28 serves as a positive comparator to show what a validated Src inhibitor should do in these assays. After treatment with compound, cells are lysed, subjected to PAGE and probed with a battery of antibodies. […] In addition, off-target protein phosphorylation is also investigated. Further, induction of apoptosis is evaluated via Caspase 3 cleavage. Multiple doses of each compound are tested because the trends in response to increasing drug concentration are the most reliable indicator of activity.
(§6) A dose response curve is generated using the GI50 for the compounds of the invention in each of the two cell lines as the 1× concentration. […] The same range of multiples of the GI50 for AZ28 in these two cell lines are run as a comparison.

The test system of assay [2] is known Src protein substrates. Put plainly: Phosphorylation of Src substrates in c-Src (527F) transformed NIH3T3 cells. On the procedure: as §4, §5, §6

Four compounds from patent US20100256147A1, “BIARYL ACETAMIDE DERIVATIVES AS MODULATORS OF THE KINASE CASCADE FOR THE TREATMENT OF HEARING LOSS, OSTEOPOROSIS AND CELL PROLIFERATION DISORDERS” (priority 2007, published 2010) can be followed below.

The IC50 is the midpoint of a concentration-inhibition curve. Broadly, the IC80 is the concentration needed for an effect of 80%.

Where only a bound is given, the exact number is not on record here.

As for `C[C@@H](NC(=O)Cc1ccc(-c2ccc(OCCN3CCOCC3)cc2F)nc1)C1CCCCC1`, the IC50 amounted to 1290 nM in the assay on Ba/F3-JAK3 and 2080 nM in the assay on Ba/F3-JAK2. Further, the GI50 with c-Src527F/NIH 3T3 was found to be 1230 nM; with HT29, 1060 nM.
On the same counts, the results for `O=C(Cc1ccc(-c2ccc(OCCN3CCOCC3)cc2F)nc1)NCCC1CCCC1` are 1200 nM, 1320 nM, 1160 nM and 1230 nM.
On to `Cc1nc(Nc2ncc(C(=O)Nc3c(C)cccc3Cl)s2)cc(N2CCN(CCO)CC2)n1` [Dasatinib], for which the GI50 in the assay with ACHN was 21.1 nM; with 786-O it was 2010 nM; in the assay with 769-P, 46.3 nM; in the assay on Caki-2, 14.2 nM. For the same compound, the results for the IC80 in the assay on PLC/PRF/5, in the assay with Hep 3B and in the assay on HuH7 were above 50000 nM, above 50000 nM and 7140 nM, respectively. Also, in the assay on HuH7, the IC50 came to 1970 nM.
As for `O=C(Cc1ccc(-c2ccc(OCCN3CCOCC3)cc2)cn1)NCc1ccccc1` [KX2-391], the “phosphorylation level of known Src protein substrates” value in assay [1] and in [2] was “reduce the phosphorylation level of known Src protein substrates in a dose-dependent fashion” in each case.
